Experimental data from patent US8114904B2, “Luminescence quenchers and fluorogenic probes for detection of reactive species” (Versitech Limited & Morningside Ventures Limited, priority 2008, dated 2012).

Tests used:
[1] = test system: Murine J744.1 macrophages; experiment: Cell assay: detection of peroxynitrite in living cells by fluorescent microscopy; format: cell-based; details: for fluorescence observed in the absence of stimulants: J744.1 macrophages incubated with 20 μM probe for 1 hr
Protocol: (§1) Murine J744.1 macrophages (ATCC, USA) were used to investigate the potential of Compound 22 (acetate form of Compound 10) for the detection of peroxynitrite in living cells. J744.1 macrophages were cultured in Dulbecco's Modified Eagle's Medium (DMEM) (Gibco) containing 10% heat-inactivated fetal bovine serum (Gibco) supplemented with 100 U/ml of penicillin and 100 μg/ml streptomycin at 37° C., 5% CO2. They were subcultured by scraping and seeded on six-well plates according to manufacture's instruction. The growth medium was changed every two to three days. Cells were grown to confluence prior to experiment. Murine J744.1 macrophages were incubated with Compound 22 (20 μM) for 1 hr and then washed three times with PBS buffer.
as §1, with “12 and 12a” for “22 (acetate form of Compound 10)”, “12 or 12a” for “22”, “buffer. […] The fluorescence was induced after treatment with LPS (lipopolysaccharide, 1 μg/ml) for 4 hrs (FIG. 9D and FIG. 10B).” for “buffer.”

[2] = UV-visible absorption spectrum; format: physicochemical; details: 10 μM solution, pH 7.4 0.1 M phosphate buffer, 0.1% DMF
Protocol: Compound 10 obtained in Example 4 was dissolved in pH 7.4 0.1 M phosphate buffer containing 0.1% DMF as cosolvent to form a 10 μM solution.
Compound 12 obtained in Example 5 was dissolved in pH 7.4 0.1 M phosphate buffer containing 0.1% DMF as cosolvent to form a 1 μM solution.
Compound 14 obtained in Example 6 was dissolved in pH 7.4 0.1 M phosphate buffer containing 0.1% DMF as cosolvent to form a 1 μM solution.
Compound 30 obtained in Example 7 was dissolved in pH 7.4 0.1 M phosphate buffer containing 0.1% DMF as cosolvent to form a 10 μM solution. The absorption spectrum of the 10 μM solution of Compound 30 was measured.

[3] = Emission spectra of the probe itself; format: physicochemical; details: 10 μM, 0.1 M phosphate buffer pH 7.4, excitation 520 nm, Hitachi F7000, 900 V
Protocol: Compound 10 obtained in Example 4 was dissolved in DMF to a concentration of 10 mM, and then the solution was diluted to 10 μM by 0.1 M phosphate buffer (pH 7.4). The fluorescence spectrum of the 10 μM solution of Compound 10 was measured using a Hitachi F2500 fluorescence spectrometer and the photomultiplier voltage was 700 V. The slit width was 2.5 nm for both excitation and emission. The measurement was carried out at an excitation wavelength of 520 nm. The results shown in FIG. 1 indicate that Compound 10 itself is non-fluorescent.
Compound 12 obtained in Example 5 was dissolved in DMF to a concentration of 1 mM, and then the solution was diluted to 1 μM by 0.1 M phosphate buffer (pH 7.4). The fluorescence spectrum of the 1 μM solution of Compound 12 was measured using a Hitachi F2500 fluorescence spectrometer and the photomultiplier voltage was 700 V. The slit width was 2.5 nm for both excitation and emission. The measurement was carried out at an excitation wavelength of 515 nm. The results shown in FIG. 4 indicate that Compound 12 itself is non-fluorescent.
Compound 14 obtained in Example 6 was dissolved in DMF to a concentration of 1 mM, and then the solution was diluted to 1 μM by 0.1 M phosphate buffer (pH 7.4). The fluorescence spectrum of the 1 μM solution of Compound 14 was measured using a Hitachi F2500 fluorescence spectrometer and the photomultiplier voltage was 700 V. The slit width was 2.5 nm for both excitation and emission. The measurement was carried out at an excitation wavelength of 515 nm. The results shown in FIG. 6 indicate that Compound 14 itself is non-fluorescent.
Compound 30 obtained in Example 7 was dissolved in DMF to a concentration of 10 mM, and then the solution was diluted to 10 μM by 0.1 M phosphate buffer (pH 7.4). The fluorescence spectrum of the 10 μM solution of Compound 30 was measured using a Hitachi F7000 fluorescence spectrometer and the photomultiplier voltage was 900 V. The slit width was 2.5 nm for both excitation and emission. The measurement was carried out at an excitation wavelength of 520 nm.

[4] = Detection of peroxynitrite: fluorescence spectra after addition of peroxynitrite; details: 10 μM probe, 0.1 M potassium phosphate buffer pH 7.4, measured after 5 minutes, excitation 520 nm
Protocol: Compound 10 obtained in Example 4 was dissolved in DMF to a concentration of 10 mM, and then the solution was diluted to 10μM by 0.1 M potassium phosphate buffer (pH 7.4). Peroxynitrite solution in 0.1 M NaOH was prepared by the method of Keith and Powell (Keith, W. G. & Powell, R. E.; Kinetics of decomposition of peroxynitrous acid; J. Chem. Soc. A, 1969, 1, 90), and its concentration in the stock solutions used was estimated by using an extinction coefficient of 1670 cm^−1 (mol/L)^−1 at 302 nm (Hughes and Nicklin; The chemistry of pernitrites. Part I. Kinetics of decomposition of pernitrious acid; J. Chem. Soc. A, 1968, 2, 450-452). Peroxynitrite stock solution was added into the solution of Compound 10 to provide various final concentrations, like 0, 2, 6, 10, 20, 30, 50 100, and 200 μM. Fluorescence spectra of the solutions were measured after 5 minutes under the same conditions as mentioned above.
Compound 12 obtained in Example 5 was dissolved in DMF to a concentration of 1 mM, and then the solution was diluted to 1 μM by 0.1 M potassium phosphate buffer (pH 7.4). Peroxynitrite solution in 0.1 M NaOH was prepared by the method of Keith and Powell (Keith, W. G. & Powell, R. E.; Kinetics of decomposition of peroxynitrous acid; J. Chem. Soc. A, 1969, 1, 90), and its concentration in the stock solutions used was estimated by using an extinction coefficient of 1670 cm^−1 (mol/L)^−1 at 302 nm (Hughes and Nicklin; The chemistry of pernitrites. Part I. Kinetics of decomposition of pernitrious acid; J. Chem. Soc. A, 1968, 2, 450-452). Peroxynitrite stock solution was added into the solution of Compound 12 to provide various final concentrations, like 0, 1, 2, 3, 4, 5, 6, and 7 μM. Fluorescence spectra of the solutions were measured after 5 minutes under the same conditions as mentioned above.
Compound 30 obtained in Example 7 was dissolved in DMF to a concentration of 10 mM, and then the solution was diluted to 10 μM by 0.1 M potassium phosphate buffer (pH 7.4). Peroxynitrite solution in 0.1 M NaOH was prepared by the method of Keith and Powell (Keith, W. G. & Powell, R. E.; Kinetics of decomposition of peroxynitrous acid; J. Chem. Soc. A, 1969, 1, 90), and its concentration in the stock solutions used was estimated by using an extinction coefficient of 1670 cm^−1 (mol/L)^−1 at 302 nm (Hughes and Nicklin; The chemistry of pernitrites. Part I. Kinetics of decomposition of pernitrious acid; J. Chem. Soc. A, 1968, 2, 450-452). Peroxynitrite stock solution was added into the solution of Compound 30 to provide various final concentrations. Fluorescence spectra of the solutions were measured after 5 minutes under the same conditions as mentioned above.

CC(=O)Oc1cc2c(cc1Cl)C1(OC(=O)c3ccccc31)c1cc(Cl)c(N(C)c3ccc(CCC(=O)C(F)(F)F)cc3)cc1O2 (stereo not drawn) [Compound 22]
fluorescence after treatment with LPS and IFN-γ ([1]; 20 μM probe 1 hr, LPS 1 μg/ml and IFN-γ 50 ng/ml for 4 hrs): induced
fluorescence after additional stimulation by PMA ([1]; 20 μM probe 1 hr, LPS and IFN-γ 4 hrs, then PMA 10 nM for half an hour): strong fluorescence
fluorescence observed in the absence of stimulants [1]: very weak fluorescence
suitability for detection of peroxynitrite in stimulated macrophages ([1]; stimulated Murine J744.1 macrophages): suitable for the detection of peroxynitrite

CN(c1ccc(O)cc1)c1ccc2c(ccc3c(-c4ccccc4C(=O)O)c4cc(Cl)c(=O)cc-4oc32)c1 [Compound 30]
absorption maximum [2]: about 540 nm
fluorescence of the probe itself [3]: may be non-fluorescent
fluorescence intensity after the addition of peroxynitrite [4]: increases significantly

CC(=O)Oc1ccc(N(C)c2ccc3c(c2)Oc2cc(OC(C)=O)ccc2C32OC(=O)c3ccccc32)cc1 (stereo not drawn) [Compound 12a]
fluorescence after treatment with LPS ([1]; 20 μM probe 1 hr, LPS 1 μg/ml for 4 hrs): induced
fluorescence observed in the absence of stimulants [1]: very weak fluorescence
